US7910568B2, “Derivatives of 4- or 5-aminosalicylic acid” (Antibe Therapeutics Inc., priority 2005, dated 2011)

What was measured:
[1] = tested on: leukocyte adherence to the vascular endothelium; assay: Aspirin-induced leukocyte adherence to the vascular endothelium, intravital microscopy of mesenteric venules; assay type: in vivo, rat
Method: Leukocyte adherence was studied using intravital microscopy, as described in detail previously (Wallace et al., (1993) Am. J. Physiol. 265: 993-998, incorporated hereto by reference). Rats were anesthetized with pentobarbital sodium (60 mg/kg i.p.) and cautery incisions were made along the abdominal region. A tracheotomy was performed to facilitate breathing. The rats were placed in a supine position, and a segment of the mesentery was exteriorized through the abdominal incision. The mesentery was carefully placed over an optically clear viewing pedestal that allowed for trans-illumination of a 2-cm^2 segment of tissue. All exposed tissue was covered with saline-soaked gauze to minimize dehydration. The temperature of the pedestal was kept at 37° C. and the mesentery was superfused with warmed bicarbonate-buffered saline (pH 7.4). An intravital microscope (Nikon L25/0.35) and a ×10 eyepiece were used to observe the mesenteric microcirculation. Post-capillary venules with diameters ranging from 20 to 40 μm were selected for the study. A video camera mounted on the microscope (Panasonic™ digital 5000) projected the image onto a monitor, and the images were recorded for playback analysis using a videocassette recorder. Images of the mesenteric microcirculation were recorded 5 minutes prior to aspirin administration (baseline), at the time of aspirin administration (time 0-5) and every 15 minutes for 60 minutes. Leukocyte adherence was blindly quantified from videotaped images of the vessels made over 5-min periods as the number of leukocytes that remained stationary along the vessel wall for 30 s or more (expressed per 100 μm venule length). Groups of rats (at least 5 in each) were pretreated with Compound XXXV (130 mg/kg), Compound XXVII (100 mg/kg), mesalamine (50 mg/kg), or vehicle 60 min prior to aspirin (or vehicle) administration. These drugs were given intragastrically. In some experiments, rats were treated with glibenclamide (10 mg/kg i.p.) or vehicle 30 min prior to administration of these compounds.

[2] = tested on: COX-2 mRNA; assay: TNBS-induced colitis in mice, colonic COX-2 mRNA by RT-PCR; assay type: in vivo; details: dose equimolar to 50 mg/kg mesalamine; FIG. 13
Method: (§1) The same model was used as described above. In this example, the effects of mesalamine (50 mg/kg) were compared to those of equimolar doses of Compound XXXV. In addition to measuring the severity of colitis by measuring disease activity score and MPO activity, tissues were processed for measurement of a number of genes for inflammatory cytokines and other mediators.
(§2) In particular, mRNA expression in mice of tumour necrosis factor-alpha (TNF-α), interferon gamma (IFN-γ), colonic interleukin (IL)-1, IL-2, IL-10, IL-12 p40, RANTES, cyclooxygenase (COX)-1, COX-2, constitutive endothelial nitric oxide synthase (eNOS), and inducible NOS (iNOS) was measured as described in Wallace et al. (1999) Gastroenterology 117: 557-566, incorporated herein by reference.
(§3) Briefly, reverse transcription-polymerase chain reaction (RT-PCR) was used to detect and quantify mRNA of the particular cytokine/chemokine/enzyme. Glyceraldehyde-3-phosphate dehydrogenase (GAPDH) was used as the “housekeeping gene” for mRNA expression (i.e., as an internal control). For each sample, the ratio of the amplification of the target gene to the amplification of GAPDH (expression of each is measured by performing densitometry on gels) was obtained. […]

[3] = tested on: eNOS mRNA; assay: TNBS-induced colitis in mice, colonic eNOS mRNA by RT-PCR; assay type: in vivo; details: dose equimolar to 50 mg/kg mesalamine; FIG. 14
Method: as §1, §2, §3

[4] = tested on: colonic smooth muscle; assay: Rat colorectal distension, intrarectal pressure / compliance of the colo-rectum; assay type: in vivo; details: 100 mg/kg i.p.; FIG. 16(b)
Description: In the testing day, rats were sedated with ether inhalation and a 2 cm long latex balloon was inserted intrarectally 2 cm from the anal verge and fixed at the base of the tail. The balloon was connected via a double-barreled cannula to a pressure transducer to continuously monitoring the rectal pressure by a computer (PowerLab PC, A.D. Instruments, Milford, Mass., USA) and to a syringe for inflation/deflation of the balloon. The rats were then housed in a small cage (20×8×8 cm) on an elevated Plexiglas™ platform and allowed to wake up and adapt for 1 hour. After recovery from sedation, animals underwent the CRD procedure and behavioral responses were tested. The night before the experiments, the balloons were inflated and left overnight so the latex stretched and the balloons became compliant. CRD of 20 seconds, performed every 5 minutes, was applied in increment of 0.4 ml starting from 0.4 ml up to 1.6 ml water. […] Behavioral responses during the first and the second set of CRD were assessed and compared. To determine the effect of mesalamine or Compound XXXV on colonic smooth muscle, the compliance of the colo-rectum during CRD was obtained from intracolo-rectal volume and pressure and expressed as mL/mmHg. […]

[5] = tested on: TNBS-induced colitis; assay: TNBS-induced colitis in mice, disease activity score; assay type: in vivo
Method: A standard experimental animal model of colitis induced by intracolonic administration of 2,4,6-trinitrobenzene sulfonic acid (TNBS) to mice is used in the following example. A detailed description of this model has been published (Santucci et al. (2003) Gastroenterology 124:1381-94) and is incorporated herein by reference. Briefly, 6-8 week old Balb/c mice were given TNBS intracolonically at a dose of 1.5 mg in 0.1 mL of 30% ethanol. The mice were randomized to the various treatment groups (n=6 per group). Beginning one hour later and continuing every 12 h for 5 days, the mice were treated orally with vehicle (1% carboxymethylcellulose (CMC)), 5-ASA (mesalamine) (25, 50 or 75 mg/kg) or with equimolar doses of 2-hydroxy-5-amino-benzoic acid 4-(thioxo-5H-[1,2]dithiol-3-yl)-phenyl ester hydrochloride (Compound XXXV) (130 mg/kg), or with […] (100 mg/kg), 50% (66 mg/kg) and 25% (33 mg/kg) of that dose. The mice were evaluated (blindly) on the final day of the study for the presence of diarrhea and fecal occult blood, and their body weights were measured. […] After sacrifice, a sample of the colon was excised for measurement of myeloperoxidase (MPO) activity, as a marker of granulocyte infiltration. All results were compared to those obtained with healthy mice as well.

With `Nc1ccc(O)c(C(=O)Oc2ccc(-c3cc(=S)ss3)cc2)c1` [Compound XXXV, 5-Amino-2-hydroxy-benzoic acid 4-(5-thioxo-5H-[1,2]dithiol-3-yl)-phenyl ester] the “Aspirin-induced leukocyte adherence after glibenclamide pretreatment” value ([1]; glibenclamide 10 mg/kg i.p. 30 min prior to the compound, FIG. 19) was “reversed the inhibitory effect”, the Aspirin-induced leukocyte adherence ([1]; intragastric pretreatment 60 min prior to aspirin (XXXV 130 mg/kg, mesalamine 50 mg/kg), glibenclamide 10 mg/kg i.p., FIG. 19) was “prevented the aspirin-induced increase in leukocyte adherence” and the “Aspirin-induced leukocyte adherence, final time period” value ([1]; minutes 60-65, XXXV 130 mg/kg, XXVII 100 mg/kg intragastric, FIG. 20) was “suppress aspirin-induced leukocyte adherence”. For the same compound, the “Aspirin-induced leukocyte adherence, final time period, after glibenclamide pretreatment” value ([1]; minutes 60-65, glibenclamide 10 mg/kg i.p., FIG. 20) was “reverse this inhibitor effect”, the “COX-2 mRNA expression” value [2] was “suppressed” and the “eNOS mRNA expression” value [3] was “suppressed”. For the same compound, the Intrarectal pressure [4] was “successfully reduced intrarectal pressure”, the “Disease Activity Index” value ([5]; Compound XXXV 130 mg/kg vs mesalamine 50 mg/kg, ADT-OH 80 mg/kg and their mixture, FIG. 3) was “almost twice as effective as either mesalamine alone, ADT-OH alone or a mixture of mesalamine and ADT-OH” and the “Every endpoint of FIGS. 7-14 (MPO activity, disease activity score, colonic mRNA expression)” value ([5]; dose equimolar to 50 mg/kg mesalamine) was “superior to mesalamine in every endpoint”. The Disease activity score ([5]; dose-ranging, oral every 12 h for 5 days, equimolar doses of 50 mg/kg and 75 mg/kg mesalamine, FIG. 1) was “superior to mesalamine in reducing the activity score”.
